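Five compound concentrations were applied to cells in 96-well plates for 48 hours; endpoints were derived by simple linear interpolation of the resulting dose-response curve. GI50 is the concentration that inhibits growth by half.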 Calls of active or inactive are those of the source. Rule as the data show it: active = GI50 up to about 1.1 µM and inactive = higher.
Tests used:
Test in all cases: NCI anticancer screen, dose series, 48 h
786-0 = tested on: 786-0
A498 = tested on: A498
A549 = tested on: A549
ACHN = tested on: ACHN
BT-549 = tested on: BT-549
CAKI-1 = tested on: CAKI-1
COLO 205 = tested on: COLO 205
DU-145 = tested on: DU-145
EKVX = tested on: EKVX
HCT-116 = tested on: HCT-116
HCT-15 = tested on: HCT-15
HOP-62 = tested on: HOP-62
HOP-92 = tested on: HOP-92
HT-29 = tested on: HT-29
Hs-578T = tested on: Hs-578T
IGROV-1 = tested on: IGROV-1
K562 = tested on: K562
KM12 = tested on: KM12
LOX IMVI = tested on: LOX IMVI
M14 = tested on: M14
MCF7 = tested on: MCF7
MDA-MB-231 = tested on: MDA-MB-231
MDA-MB-435 = tested on: MDA-MB-435
MDA-N = tested on: MDA-N
MOLT-4 = tested on: MOLT-4
Malme-3M = tested on: Malme-3M
NCI-H226 = tested on: NCI-H226
NCI-H23 = tested on: NCI-H23
NCI-H460 = tested on: NCI-H460
NCI-H522 = tested on: NCI-H522
NCI/ADR-RES = tested on: NCI/ADR-RES
OVCAR-3 = tested on: OVCAR-3
OVCAR-4 = tested on: OVCAR-4
OVCAR-5 = tested on: OVCAR-5
OVCAR-8 = tested on: OVCAR-8
PC-3 = tested on: PC-3
RPMI-8226 = tested on: RPMI-8226
RXF 393 = tested on: RXF 393
SF-268 = tested on: SF-268
SF-295 = tested on: SF-295
SF-539 = tested on: SF-539
SK-MEL-28 = tested on: SK-MEL-28
SK-MEL-2 = tested on: SK-MEL-2
SK-OV-3 = tested on: SK-OV-3
SN12C = tested on: SN12C
SNB-19 = tested on: SNB-19
SNB-75 = tested on: SNB-75
SR = tested on: SR
SW-620 = tested on: SW-620
T47D = tested on: T47D
TK-10 = tested on: TK-10
U-251 = tested on: U-251
UACC-257 = tested on: UACC-257
UACC-62 = tested on: UACC-62

C[C@]12C[C@H](O)[C@H]3[C@@H](CCC4=CC(=O)CC[C@@]43C)[C@@H]1CC[C@@H]2c1csc(-c2ccccc2)n1
GI50 (786-0): 25.2 µM (inactive)
GI50 (A498): > 39 µM (inactive)
GI50 (A549): 11.2 µM (inactive)
GI50 (ACHN): > 50.6 µM (inactive)
GI50 (BT-549): > 100 µM (inactive)
GI50 (CAKI-1): 38.4 µM (inactive)
GI50 (COLO 205): > 28 µM (inactive)
GI50 (DU-145): > 51.6 µM (inactive)
GI50 (EKVX): 21 µM (inactive)
GI50 (HCT-116): > 100 µM (inactive)
GI50 (HCT-15): > 100 µM
GI50 (HOP-62): 9.53 µM (inactive)
GI50 (HOP-92): 27.8 µM (inactive)
GI50 (HT-29): > 30.3 µM (inactive)
GI50 (Hs-578T): 30.1 µM (inactive)
GI50 (IGROV-1): > 68.5 µM (inactive)
GI50 (K562): 1.52 µM (inactive)
GI50 (KM12): > 46.7 µM (inactive)
GI50 (LOX IMVI): > 58.3 µM (inactive)
GI50 (M14): > 92.7 µM (inactive)
GI50 (MCF7): > 23 µM (inactive)
GI50 (MDA-MB-231): 20.1 µM (inactive)
GI50 (MDA-MB-435): > 46.3 µM (inactive)
GI50 (MDA-N): > 80.7 µM (inactive)
GI50 (MOLT-4): 0.625 µM (active)
GI50 (Malme-3M): > 44.2 µM (inactive)
GI50 (NCI-H226): > 58.1 µM (inactive)
GI50 (NCI-H23): 4.57 µM (inactive)
GI50 (NCI-H460): 5.85 µM (inactive)
GI50 (NCI-H522): 4.16 µM (inactive)
GI50 (NCI/ADR-RES): 46.6 µM (inactive)
GI50 (OVCAR-3): > 22.4 µM (inactive)
GI50 (OVCAR-4): 23.2 µM (inactive)
GI50 (OVCAR-5): > 100 µM (inactive)
GI50 (OVCAR-8): 35.8 µM (inactive)
GI50 (PC-3): 3.32 µM (inactive)
GI50 (RPMI-8226): 3.56 µM (inactive)
GI50 (RXF 393): 72.4 µM (inactive)
GI50 (SF-268): > 53.8 µM (inactive)
GI50 (SF-295): > 100 µM (inactive)
GI50 (SF-539): 62.5 µM (inactive)
GI50 (SK-MEL-28): > 100 µM (inactive)
GI50 (SK-MEL-2): > 34 µM (inactive)
GI50 (SK-OV-3): 27.5 µM (inactive)
GI50 (SN12C): 59.7 µM (inactive)
GI50 (SNB-19): 29.6 µM (inactive)
GI50 (SNB-75): 26.4 µM (inactive)
GI50 (SR): 3.21 µM (inactive)
GI50 (SW-620): 39.5 µM (inactive)
GI50 (T47D): 3.15 µM (inactive)
GI50 (TK-10): 26.1 µM (inactive)
GI50 (U-251): 24.9 µM (inactive)
GI50 (UACC-257): 3.48 µM (inactive)
GI50 (UACC-62): 29.4 µM (inactive)

— ChEMBL document CHEMBL1201862, “PubChem BioAssay data set” (2004)
